# Key:
# Toll-like receptor 2 = Toll-like receptor 2 (Homo sapiens, UniProt O60603); assay: Antagonist activity at human TLR2 in HEK-Blue hTLR2 cells assessed as inhibition of Pam3CSK4-induced receptor activation preincubated with Pam3CSK4 followed by compound addition and measured 24 hrs by Quanti-Blue based SEAP reporter gene assay; type: cell-based
# Toll-like receptor 4 = Toll-like receptor 4 (Homo sapiens, UniProt O00206); assay: Antagonist activity at human TLR4 in HEK-Blue hTLR4 cells assessed as inhibition of LPS-induced receptor activation preincubated with LPS followed by compound addition and measured 24 hrs by Quanti-Blue based SEAP reporter gene assay; type: cell-based
# [1] = Cytotoxicity against HEK-Blue hTLR2 cells assessed as lethal dose measured after 24 hrs by CCK-8 assay; type: toxicity, cell-based; settings: human, read-out: LD50
# [2] = Cytotoxicity against HEK-Blue hTLR4 cells assessed as lethal dose measured after 24 hrs by CCK-8 assay; type: toxicity, cell-based; settings: human, read-out: LD50
# [3] = Cytotoxicity against mouse RAW264.7 cells assessed as lethal dose measured after 24 hrs by CCK-8 assay; type: toxicity, cell-based; settings: read-out: LD50
# Toll-like receptor 2, sequence (O60603 whole entry): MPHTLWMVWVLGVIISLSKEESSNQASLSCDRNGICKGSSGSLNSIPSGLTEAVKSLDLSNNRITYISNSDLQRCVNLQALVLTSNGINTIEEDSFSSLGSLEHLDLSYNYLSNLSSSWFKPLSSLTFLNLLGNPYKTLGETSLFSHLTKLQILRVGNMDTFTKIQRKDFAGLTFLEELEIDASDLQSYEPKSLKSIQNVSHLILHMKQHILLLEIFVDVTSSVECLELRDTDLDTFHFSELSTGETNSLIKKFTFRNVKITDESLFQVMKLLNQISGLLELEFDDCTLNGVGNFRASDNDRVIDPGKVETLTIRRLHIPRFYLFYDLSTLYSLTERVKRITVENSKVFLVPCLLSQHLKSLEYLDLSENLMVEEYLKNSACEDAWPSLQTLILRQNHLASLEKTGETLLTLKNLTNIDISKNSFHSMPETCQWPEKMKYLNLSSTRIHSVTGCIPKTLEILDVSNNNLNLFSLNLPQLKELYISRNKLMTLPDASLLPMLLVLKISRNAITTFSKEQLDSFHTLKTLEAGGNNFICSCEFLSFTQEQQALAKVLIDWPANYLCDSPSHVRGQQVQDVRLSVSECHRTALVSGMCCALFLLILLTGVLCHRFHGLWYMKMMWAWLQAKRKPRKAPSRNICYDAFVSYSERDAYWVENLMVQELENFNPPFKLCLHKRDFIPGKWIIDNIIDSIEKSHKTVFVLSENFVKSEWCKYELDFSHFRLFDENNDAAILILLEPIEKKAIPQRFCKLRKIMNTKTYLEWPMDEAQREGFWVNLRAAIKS
# Toll-like receptor 4, sequence (O00206 whole entry): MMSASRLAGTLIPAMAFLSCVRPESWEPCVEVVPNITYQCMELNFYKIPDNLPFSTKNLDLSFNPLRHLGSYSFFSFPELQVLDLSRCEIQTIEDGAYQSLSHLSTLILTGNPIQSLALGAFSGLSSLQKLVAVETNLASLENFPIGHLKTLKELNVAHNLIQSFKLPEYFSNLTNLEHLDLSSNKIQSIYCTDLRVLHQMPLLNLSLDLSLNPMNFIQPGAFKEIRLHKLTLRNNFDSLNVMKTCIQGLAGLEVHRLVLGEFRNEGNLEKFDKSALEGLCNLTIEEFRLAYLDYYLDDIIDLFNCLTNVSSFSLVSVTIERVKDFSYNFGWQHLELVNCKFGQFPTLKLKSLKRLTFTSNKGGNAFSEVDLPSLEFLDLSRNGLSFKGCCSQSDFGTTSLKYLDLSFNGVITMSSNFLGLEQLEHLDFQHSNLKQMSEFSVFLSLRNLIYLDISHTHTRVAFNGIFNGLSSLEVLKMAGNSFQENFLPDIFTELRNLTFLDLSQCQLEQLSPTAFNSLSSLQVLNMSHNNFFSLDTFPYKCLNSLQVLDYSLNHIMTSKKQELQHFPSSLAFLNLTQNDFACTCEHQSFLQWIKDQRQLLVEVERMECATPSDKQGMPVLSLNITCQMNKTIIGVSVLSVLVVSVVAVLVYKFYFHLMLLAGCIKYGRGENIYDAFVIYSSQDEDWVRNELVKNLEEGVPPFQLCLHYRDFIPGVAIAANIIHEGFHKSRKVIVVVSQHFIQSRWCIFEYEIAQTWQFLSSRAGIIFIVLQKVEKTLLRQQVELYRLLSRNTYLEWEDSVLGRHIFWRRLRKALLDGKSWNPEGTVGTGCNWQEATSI
SMILES,IC50 (Toll-like receptor 4),IC50 (Toll-like receptor 2),also measured
O=[N+]([O-])/C=C/c1cccc(OCc2ccc(Cl)cc2)c1,4.8 µM,4.3 µM,–
O=[N+]([O-])/C=C/c1cccc(OCc2ccc(F)cc2)c1,4.2 µM,5.5 µM,–
O=[N+]([O-])/C=C/c1cccc(OCc2ccccc2)c1,3.5 µM,3.3 µM,–
O=[N+]([O-])/C=C/c1ccccc1Oc1ccccc1,–,4.4 µM,–
O=[N+]([O-])/C=C/c1cccc(OCC2CCCCC2)c1,5.9 µM,–,–
O=[N+]([O-])/C=C/c1cccc(OCc2ccccn2)c1,1.4 µM,1.1 µM,–
CCCCOc1cccc(/C=C/[N+](=O)[O-])c1,5.8 µM,3.9 µM,–
O=[N+]([O-])/C=C/c1cccc(OCC2CC2)c1,2.5 µM,2.4 µM,–
COc1ccc(COc2cccc(/C=C/[N+](=O)[O-])c2)cc1,5.6 µM,4.4 µM,–
O=[N+]([O-])/C=C/c1cccc(Nc2ccccn2)c1,0.46 µM,–,CC50 at 24 h [1]: 28 µM; CC50 at 24 h [2]: 28 µM; CC50 at 24 h [3]: 28 µM
O=[N+]([O-])/C=C/c1cccc(OCc2ccncc2)c1,3.9 µM,3.2 µM,–
O=[N+]([O-])/C=C/c1cccc(OCc2ccc3ccccc3c2)c1,4.4 µM,5 µM,–

# Further lines, with some results ahead:
IC50 (Toll-like receptor 4),SMILES,IC50 (Toll-like receptor 2),also measured
9.2 µM,CCOC(=O)c1ccc(COc2cccc(/C=C/[N+](=O)[O-])c2)nc1,12.3 µM,–
6.5 µM,O=[N+]([O-])/C=C/c1ccc(Oc2ccccc2)cc1,–,–
3.6 µM,O=C(Nc1ccccn1)c1cccc(/C=C/[N+](=O)[O-])c1,–,–
2.8 µM,O=[N+]([O-])/C=C/c1cccc(Nc2ncccn2)c1,2.6 µM,–
1 µM,O=[N+]([O-])/C=C/c1cccc(Oc2ccccn2)c1,1.2 µM,–
6.2 µM,O=[N+]([O-])/C=C/c1cccc(Oc2ncccn2)c1,–,–
3.7 µM,CN(C)c1ccc(/C=C/[N+](=O)[O-])cc1Nc1ccccn1,–,–
0.28 µM,O=[N+]([O-])/C=C/c1cccc(-c2ccccn2)c1,–,–
5.9 µM,CCCOC(=O)c1ccc(COc2cccc(/C=C/[N+](=O)[O-])c2)nc1,–,–
2.4 µM,O=[N+]([O-])/C=C/c1cccc(Oc2nccs2)c1,–,–
3.7 µM,CCCCOC(=O)c1ccc(COc2cccc(/C=C/[N+](=O)[O-])c2)nc1,3.1 µM,–
3.1 µM,O=[N+]([O-])/C=C/c1cccc(Nc2cccnc2)c1,–,–
6.3 µM,C/C(=C\[N+](=O)[O-])c1cccc(Oc2ccccc2)c1,–,–
4.3 µM,O=[N+]([O-])/C=C/c1cccc(Oc2ccccc2)c1,3.4 µM,–

# Reference: ChEMBL document CHEMBL5107941, “Design and optimisation of a small-molecule TLR2/4 antagonist for anti-tumour therapy” (RSC Med Chem, 2021)
